Laboratory results from patent publication US8415272B2, “Quinoline derivatives and their use as fungicides” (Syngenta Crop Protection LLC, priority 2008, dated 2013).

Tests used:
Septoria nodorum = assay: Leaf disk assay, Septoria nodorum (wheat glume blotch), preventive; assay type: in vivo; details: Parastagonospora nodorum, foliar, 96 h, wheat leaf segments, assessed four days after inoculation, read-out: control of fungal infection, Septoria nodorum
Phytophthora infestans = assay: whole plant or invertebrate; assay type: in vivo; details: in Solanum lycopersicum, foliar, 96 h, read-out: control of fungal infection, Phytophthora infestans
Pythium ultimum = assay: Growth inhibition in potato dextrose broth, Pythium ultimum (damping off), photometric; assay type: cell-based; details: Globisporangium ultimum, 24° C., 48 hours, read-out: control of fungal infection, Pythium ultimum
How it was run: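 Growth inhibition was read photometrically at 48 hours after incubation at 24° C. Test compound was diluted from DMSO to 20 ppm in water and combined with potato dextrose broth seeded with Pythium ultimum mycelial fragments.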

Fusarium culmorum = assay: Growth inhibition in nutrient broth, Fusarium culmorum (root rot), photometric; assay type: cell-based; details: 48 h, read-out: control of fungal infection, Fusarium culmorum
Experimental: The compounds were tested in a leaf disk assay, with methods described below. The test compounds were dissolved in DMSO and diluted into water to 200 ppm. In the case of the test on Pythium ultimum, they were dissolved in DMSO and diluted into water to 20 ppm.
Fusarium culmorum (root rot): Conidia of the fungus from cryogenic storage were directly mixed into nutrient broth (PDB potato dextrose broth). After placing a (DMSO) solution of the test compounds into a microtiter plate (96-well format) the nutrient broth containing the fungal spores was added. The test plates were incubated at 24 C and the inhibition of growth was determined photometrically after 48 hrs.

Plasmopara viticola = assay: Leaf disk assay, Plasmopara viticola (downy mildew of grapevine), preventive; assay type: in vivo; details: foliar, 168 h, grapevine leaf disks, assessed seven days after inoculation, read-out: control of fungal infection, Plasmopara viticola
Septoria tritici = assay: Growth inhibition in nutrient broth, Septoria tritici (leaf blotch), photometric; assay type: cell-based; details: Zymoseptoria tritici, PDB broth, 24 C, 72 hrs, read-out: control of fungal infection, Septoria tritici
[1] = test system: Erysiphe graminis f.sp. tritici; assay: Leaf disk assay, Erysiphe graminis f.sp. tritici (wheat powdery mildew), preventive; assay type: in vivo; details: Blumeria graminis, foliar, 96 h, wheat leaf segments, assessed four days after inoculation, read-out: control of fungal infection, Erysiphe graminis f.sp. tritici
How it was run: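 Preventive protocol: compound at 200 ppm in water (from DMSO) sprayed onto wheat leaf segments on agar, dried 12–24 h, then spore-inoculated. Fungicidal activity was assessed four days post-inoculation.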

[2] = test system: Puccinia recondita f.sp. tritici; assay: Leaf disk assay, Puccinia recondita f.sp. tritici (wheat brown rust), preventive; assay type: in vivo; details: foliar, 216 h, wheat leaf segments, assessed nine days after inoculation, read-out: control of fungal infection, Puccinia recondita f.sp. tritici

C#Cc1cnc2c(F)cc(OC(SC)C(=O)NC(C)(C)C)cc2c1 (centres unmarked) [Example 201]
≥ 60%: pest or weed control at 200 ppm (Septoria nodorum) | pest or weed control at 200 ppm (Phytophthora infestans) | inhibition of growth at 20 ppm (Pythium ultimum) | inhibition of growth at 60 ppm (Fusarium culmorum) | pest or weed control at 200 ppm (Plasmopara viticola) | inhibition of growth at 60 ppm (Septoria tritici) | pest or weed control at 200 ppm [1]

COCC#Cc1cnc2ccc(OC(SC)C(=O)NC(C)(C)C)cc2c1 (centres unmarked) [Example 42]
≥ 60%: pest or weed control at 200 ppm (Phytophthora infestans) | inhibition of growth at 20 ppm (Pythium ultimum) | pest or weed control at 200 ppm [2] | inhibition of growth at 60 ppm (Fusarium culmorum) | pest or weed control at 200 ppm (Plasmopara viticola) | inhibition of growth at 60 ppm (Septoria tritici) | pest or weed control at 200 ppm [1]

C#Cc1cnc2ccc(OC(SC)C(=O)NC(C#C)(CC)CC)cc2c1 (centres unmarked) [Example 207]
≥ 60%: pest or weed control at 200 ppm (Phytophthora infestans) | inhibition of growth at 20 ppm (Pythium ultimum) | pest or weed control at 200 ppm [2] | inhibition of growth at 60 ppm (Fusarium culmorum) | pest or weed control at 200 ppm (Plasmopara viticola) | pest or weed control at 200 ppm [1]

C#Cc1cnc2ccc(OC(SC)C(=O)NCC#N)cc2c1 (centres unmarked) [Example 196]
≥ 60%: pest or weed control at 200 ppm (Septoria nodorum) | pest or weed control at 200 ppm (Phytophthora infestans) | inhibition of growth at 20 ppm (Pythium ultimum) | inhibition of growth at 60 ppm (Fusarium culmorum) | pest or weed control at 200 ppm (Plasmopara viticola) | inhibition of growth at 60 ppm (Septoria tritici) | pest or weed control at 200 ppm [1]

C#Cc1cnc2ccc(OC(OC)C(=O)NC(C)(C)C)cc2c1 (centres unmarked) [Example 87]
≥ 60%: pest or weed control at 200 ppm (Septoria nodorum) | pest or weed control at 200 ppm (Phytophthora infestans) | pest or weed control at 200 ppm [2] | inhibition of growth at 60 ppm (Fusarium culmorum) | pest or weed control at 200 ppm (Plasmopara viticola) | inhibition of growth at 60 ppm (Septoria tritici) | pest or weed control at 200 ppm [1]

C#Cc1cnc2c(C)cc(OC(CC)C(=O)NC(C)(C)CO)cc2c1 (centres unmarked) [Example 111]
≥ 60%: pest or weed control at 200 ppm (Septoria nodorum) | pest or weed control at 200 ppm (Phytophthora infestans) | inhibition of growth at 20 ppm (Pythium ultimum) | inhibition of growth at 60 ppm (Fusarium culmorum) | pest or weed control at 200 ppm (Plasmopara viticola) | inhibition of growth at 60 ppm (Septoria tritici) | pest or weed control at 200 ppm [1]

C#Cc1cnc2ccc(OC(SC)C(=O)NC(C)(C)C=O)cc2c1 (centres unmarked) [Example 61]
≥ 60%: pest or weed control at 200 ppm (Phytophthora infestans) | inhibition of growth at 20 ppm (Pythium ultimum) | pest or weed control at 200 ppm [2] | inhibition of growth at 60 ppm (Fusarium culmorum) | pest or weed control at 200 ppm (Plasmopara viticola) | inhibition of growth at 60 ppm (Septoria tritici) | pest or weed control at 200 ppm [1]

CC#Cc1cnc2ccc(OC(SC)C(=O)NC(C)(C)C)cc2c1 (centres unmarked) [Example 54]
≥ 60%: pest or weed control at 200 ppm (Septoria nodorum) | pest or weed control at 200 ppm (Phytophthora infestans) | inhibition of growth at 20 ppm (Pythium ultimum) | inhibition of growth at 60 ppm (Fusarium culmorum) | pest or weed control at 200 ppm (Plasmopara viticola) | inhibition of growth at 60 ppm (Septoria tritici) | pest or weed control at 200 ppm [1]

C#Cc1cnc2ccc(OC(OC)C(=O)NC(C)(C)C#C)cc2c1 (centres unmarked) [Example 124]
≥ 60%: pest or weed control at 200 ppm (Septoria nodorum) | pest or weed control at 200 ppm (Phytophthora infestans) | inhibition of growth at 20 ppm (Pythium ultimum) | inhibition of growth at 60 ppm (Fusarium culmorum) | pest or weed control at 200 ppm (Plasmopara viticola) | inhibition of growth at 60 ppm (Septoria tritici) | pest or weed control at 200 ppm [1]
